Assay results taken from ChEMBL document CHEMBL3621169, “Synthesis of tetrazole compounds as a novel type of potential antimicrobial agents and their synergistic effects with clinical drugs and interactions with calf thymus DNA” (Medchemcomm, 2015).
In brackets after ≈: the same amount, converted by molar mass. Activity calls are given as the source filed them. The calls are words filed in the database; no cut-off is given here.

What was measured:
Staphylococcus aureus [1] = test: Antibacterial activity against Staphylococcus aureus ATCC 25923 by micro dilution checkerboard method in the presence of chloromycin; type: functional
Staphylococcus aureus [2] = test: Antibacterial activity against methicillin-resistant Staphylococcus aureus N315 by micro dilution checkerboard method in the presence of norfloxacin; type: functional
Shigella dysenteriae [3] = test: Antibacterial activity against Shigella dysenteriae ATCC 51252 by micro dilution checkerboard method in the presence of chloromycin; type: functional
Micrococcus luteus [4] = test: Antibacterial activity against Micrococcus luteus ATCC 4698 after 24 hrs by micro broth dilution method; type: functional; conditions: ATCC 4698, 24 h
Candida albicans [5] = test: Antifungal activity against Candida albicans ATCC 90029 by micro dilution checkerboard method in the presence of fluconazole; type: functional
Candida albicans [6] = test: Antifungal activity against Candida albicans ATCC 90029 after 24 hrs by micro broth dilution method; type: functional; conditions: ATCC 90029, 24 h
Bacillus sp. [7] = test: Antibacterial activity against Bacillus proteus ATCC 13315 after 24 hrs by micro broth dilution method; type: functional; conditions: Bacillus sp. (in: firmicutes), ATCC 13315, 24 h
Escherichia coli [8] = test: Antibacterial activity against Escherichia coli DH52 after 24 hrs by micro broth dilution method; type: functional; conditions: DH52, 24 h
Bacillus spizizenii [9] = test: Antibacterial activity against Bacillus subtilis ATCC 6633 after 24 hrs by micro broth dilution method; type: functional; conditions: ATCC 6633, 24 h
Aspergillus flavus [10] = test: Antifungal activity against Aspergillus flavus by micro dilution checkerboard method in the presence of fluconazole; type: functional
Shigella dysenteriae [11] = test: Antibacterial activity against Shigella dysenteriae ATCC 51252 after 24 hrs by micro broth dilution method; type: functional; conditions: ATCC 51252, 24 h
Staphylococcus aureus [12] = test: Antibacterial activity against Staphylococcus aureus ATCC 25923 by micro dilution checkerboard method in the presence of norfloxacin; type: functional
Candida [13] = test: Antifungal activity against Candida mycoderma by micro dilution checkerboard method in the presence of fluconazole; type: functional
Candida [14] = test: Antifungal activity against Candida mycoderma after 24 hrs by micro broth dilution method; type: functional
Calf thymus DNA [15] = test: Competitive binding affinity to calf thymus DNA by UV-visible spectroscopy in presence of neutral red; type: nucleic-acid assay; conditions: Bos taurus
Staphylococcus aureus [16] = test: Antibacterial activity against Staphylococcus aureus ATCC 25923 after 24 hrs by micro broth dilution method; type: functional; conditions: ATCC 25923, 24 h
Cyberlindnera jadinii [17] = test: Antifungal activity against Candida utilis ATCC 9950 by micro dilution checkerboard method in the presence of fluconazole; type: functional
[18] = Ionization constant, pKa of the compound by UV spectroscopy; type: physicochemical
[19] = n-octanol/water partition coefficient, log P of the compound at 25 deg C after 24 hrs by saturation shake flask based UV spectroscopy; type: physicochemical
Micrococcus luteus [20] = test: Antibacterial activity against Micrococcus luteus ATCC 4698 by micro dilution checkerboard method in the presence of norfloxacin; type: functional
Cyberlindnera jadinii [21] = test: Antifungal activity against Candida utilis ATCC 9950 after 24 hrs by micro broth dilution method; type: functional; conditions: Williopsis jadinii, ATCC 9950, 24 h
Pseudomonas aeruginosa [22] = test: Antibacterial activity against Pseudomonas aeruginosa ATCC 27853 after 24 hrs by micro broth dilution method; type: functional; conditions: ATCC 27853, 24 h
Escherichia coli [23] = test: Antibacterial activity against Escherichia coli DH52 by micro dilution checkerboard method in the presence of norfloxacin; type: functional
Bacillus spizizenii [24] = test: Antibacterial activity against Bacillus subtilis ATCC 6633 by micro dilution checkerboard method in the presence of chloromycin; type: functional
Staphylococcus aureus [25] = test: Antibacterial activity against methicillin-resistant Staphylococcus aureus N315 by micro dilution checkerboard method in the presence of chloromycin; type: functional
Staphylococcus aureus [26] = test: Antibacterial activity against methicillin-resistant Staphylococcus aureus N315 after 24 hrs by micro broth dilution method; type: functional; conditions: N315, 24 h
Bacillus sp. [27] = test: Antibacterial activity against Bacillus proteus ATCC 13315 by micro dilution checkerboard method in the presence of norfloxacin; type: functional
Aspergillus flavus [28] = test: Antifungal activity against Aspergillus flavus after 24 hrs by micro broth dilution method; type: functional
Pseudomonas aeruginosa [29] = test: Antibacterial activity against Pseudomonas aeruginosa ATCC 27853 by micro dilution checkerboard method in the presence of chloromycin; type: functional
Pseudomonas aeruginosa [30] = test: Antibacterial activity against Pseudomonas aeruginosa ATCC 27853 by micro dilution checkerboard method in the presence of norfloxacin; type: functional
Micrococcus luteus [31] = test: Antibacterial activity against Micrococcus luteus ATCC 4698 by micro dilution checkerboard method in the presence of chloromycin; type: functional
Bacillus spizizenii [32] = test: Antibacterial activity against Bacillus subtilis ATCC 6633 by micro dilution checkerboard method in the presence of norfloxacin; type: functional
Shigella dysenteriae [33] = test: Antibacterial activity against Shigella dysenteriae ATCC 51252 by micro dilution checkerboard method in the presence of norfloxacin; type: functional
Calf thymus DNA [34] = test: Binding affinity to calf thymus DNA by UV-visible spectroscopy; type: nucleic-acid assay; conditions: Bos taurus
Escherichia coli [35] = test: Antibacterial activity against Escherichia coli DH52 by micro dilution checkerboard method in the presence of chloromycin; type: functional
Bacillus sp. [36] = test: Antibacterial activity against Bacillus proteus ATCC 13315 by micro dilution checkerboard method in the presence of chloromycin; type: functional
[37] = Staphylococcus aureus, ATCC 25923
[38] = Bacillus sp. (in: firmicutes), ATCC 13315
[39] = Pseudomonas aeruginosa, ATCC 27853

Clc1ccccc1CN(Cc1nnn[nH]1)c1ccccc1
fractional inhibitory concentration index (FICI) (Staphylococcus aureus [1]): 0.75 | MIC (Staphylococcus aureus [1]; [37]): 16 µg/mL | fractional inhibitory concentration index (FICI) (Staphylococcus aureus [2]): 0.75 | MIC (Staphylococcus aureus [2]; Staphylococcus aureus, N315): 8 µg/mL | fractional inhibitory concentration index (FICI) (Shigella dysenteriae [3]): 0.5 | MIC (Shigella dysenteriae [3]; Shigella dysenteriae, ATCC 51252): 8 µg/mL | MIC (Micrococcus luteus [4]): 32 µg/mL (≈ 107 µM) | fractional inhibitory concentration index (FICI) (Candida albicans [5]): 0.75 | MIC (Candida albicans [5]; Candida albicans, ATCC 90029): 2 µg/mL | MIC (Candida albicans [6]): 8 µg/mL (≈ 26.7 µM) | MIC (Bacillus sp. [7]): 16 µg/mL (≈ 53.4 µM) | MIC (Escherichia coli [8]): 16 µg/mL (≈ 53.4 µM) | MIC (Bacillus spizizenii [9]): 16 µg/mL (≈ 53.4 µM) | fractional inhibitory concentration index (FICI) (Aspergillus flavus [10]): 0.5 | MIC (Aspergillus flavus [10]; Aspergillus flavus): 4 µg/mL | MIC (Shigella dysenteriae [11]): 32 µg/mL (≈ 107 µM) | fractional inhibitory concentration index (FICI) (Staphylococcus aureus [12]): 0.5 | MIC (Staphylococcus aureus [12]; [37]): 16 µg/mL | fractional inhibitory concentration index (FICI) (Candida [13]): 0.5 | MIC (Candida [13]; Candida): 2 µg/mL | MIC (Candida [14]): 4 µg/mL (≈ 13.3 µM) | Activity (Calf thymus DNA [15]): Active | MIC (Staphylococcus aureus [16]): 32 µg/mL (≈ 107 µM) | fractional inhibitory concentration index (FICI) (Cyberlindnera jadinii [17]): 0.5 | MIC (Cyberlindnera jadinii [17]; Williopsis jadinii, ATCC 9950): 4 µg/mL | pKa [18]: 4.34 | logP at 24 h [19]: 1.09 | fractional inhibitory concentration index (FICI) (Micrococcus luteus [20]): 0.75 | MIC (Micrococcus luteus [20]; Micrococcus luteus, ATCC 4698): 8 µg/mL | MIC (Cyberlindnera jadinii [21]): 4 µg/mL (≈ 13.3 µM) | MIC (Pseudomonas aeruginosa [22]): 16 µg/mL (≈ 53.4 µM) | fractional inhibitory concentration index (FICI) (Escherichia coli [23]): 0.625 | MIC (Escherichia coli [23]; Escherichia coli, DH52): 8 µg/mL | fractional inhibitory concentration index (FICI) (Bacillus spizizenii [24]): 0.375 | MIC (Bacillus spizizenii [24]; Bacillus spizizenii, ATCC 6633): 16 µg/mL | fractional inhibitory concentration index (FICI) (Staphylococcus aureus [25]): 0.5 | MIC (Staphylococcus aureus [25]; Staphylococcus aureus, N315): 8 µg/mL | MIC (Staphylococcus aureus [26]): 32 µg/mL (≈ 107 µM) | fractional inhibitory concentration index (FICI) (Bacillus sp. [27]): 0.5 | MIC (Bacillus sp. [27]; [38]): 16 µg/mL | MIC (Aspergillus flavus [28]): 8 µg/mL (≈ 26.7 µM) | fractional inhibitory concentration index (FICI) (Pseudomonas aeruginosa [29]): 0.5 | MIC (Pseudomonas aeruginosa [29]; [39]): 16 µg/mL | fractional inhibitory concentration index (FICI) (Pseudomonas aeruginosa [30]): 0.75 | MIC (Pseudomonas aeruginosa [30]; [39]): 16 µg/mL | fractional inhibitory concentration index (FICI) (Micrococcus luteus [31]): 0.5 | MIC (Micrococcus luteus [31]; Micrococcus luteus, ATCC 4698): 8 µg/mL | fractional inhibitory concentration index (FICI) (Bacillus spizizenii [32]): 0.625 | MIC (Bacillus spizizenii [32]; Bacillus spizizenii, ATCC 6633): 8 µg/mL | MIC (Shigella dysenteriae [33]): 4 µg/mL | Activity (Calf thymus DNA [34]): Dose-dependent effect | K (Calf thymus DNA [34]): 4.16 ×10⁴ L/mol | fractional inhibitory concentration index (FICI) (Escherichia coli [35]): 0.75 | MIC (Escherichia coli [35]; Escherichia coli, DH52): 16 µg/mL | fractional inhibitory concentration index (FICI) (Bacillus sp. [36]): 0.75 | MIC (Bacillus sp. [36]; [38]): 32 µg/mL

Fc1cccc(CN(Cc2nnn[nH]2)c2ccccc2)c1
MIC (Micrococcus luteus [4]): 64 µg/mL (≈ 226 µM) | MIC (Candida albicans [6]): 32 µg/mL (≈ 113 µM) | MIC (Bacillus sp. [7]): 64 µg/mL (≈ 226 µM) | MIC (Escherichia coli [8]): 32 µg/mL (≈ 113 µM) | MIC (Bacillus spizizenii [9]): 32 µg/mL (≈ 113 µM) | MIC (Shigella dysenteriae [11]): 32 µg/mL (≈ 113 µM) | MIC (Candida [14]): 32 µg/mL (≈ 113 µM) | MIC (Staphylococcus aureus [16]): 64 µg/mL (≈ 226 µM) | pKa [18]: 4.19 | logP at 24 h [19]: 1.29 | MIC (Cyberlindnera jadinii [21]): 16 µg/mL (≈ 56.5 µM) | MIC (Pseudomonas aeruginosa [22]): 64 µg/mL (≈ 226 µM) | MIC (Staphylococcus aureus [26]): 64 µg/mL (≈ 226 µM) | MIC (Aspergillus flavus [28]): 32 µg/mL (≈ 113 µM)

CCCCCCN(Cc1nnn[nH]1)c1ccccc1
MIC (Micrococcus luteus [4]): 128 µg/mL (≈ 494 µM) | MIC (Candida albicans [6]): 64 µg/mL (≈ 247 µM) | MIC (Bacillus sp. [7]): 128 µg/mL (≈ 494 µM) | MIC (Escherichia coli [8]): 128 µg/mL (≈ 494 µM) | MIC (Bacillus spizizenii [9]): 128 µg/mL (≈ 494 µM) | MIC (Shigella dysenteriae [11]): 128 µg/mL (≈ 494 µM) | MIC (Candida [14]): 64 µg/mL (≈ 247 µM) | MIC (Staphylococcus aureus [16]): 128 µg/mL (≈ 494 µM) | pKa [18]: 4.78 | logP at 24 h [19]: 2.18 | MIC (Cyberlindnera jadinii [21]): 64 µg/mL (≈ 247 µM) | MIC (Pseudomonas aeruginosa [22]): 128 µg/mL (≈ 494 µM) | MIC (Staphylococcus aureus [26]): 256 µg/mL (≈ 987 µM) | MIC (Aspergillus flavus [28]): 64 µg/mL (≈ 247 µM)

Fc1ccc(CN(Cc2nnn[nH]2)c2ccccc2)cc1
MIC (Micrococcus luteus [4]): 256 µg/mL (≈ 904 µM) | MIC (Candida albicans [6]): 32 µg/mL (≈ 113 µM) | MIC (Bacillus sp. [7]): 128 µg/mL (≈ 452 µM) | MIC (Escherichia coli [8]): 64 µg/mL (≈ 226 µM) | MIC (Bacillus spizizenii [9]): 64 µg/mL (≈ 226 µM) | MIC (Shigella dysenteriae [11]): 64 µg/mL (≈ 226 µM) | MIC (Candida [14]): 16 µg/mL (≈ 56.5 µM) | MIC (Staphylococcus aureus [16]): 64 µg/mL (≈ 226 µM) | pKa [18]: 4.2 | logP at 24 h [19]: 1.26 | MIC (Cyberlindnera jadinii [21]): 16 µg/mL (≈ 56.5 µM) | MIC (Pseudomonas aeruginosa [22]): 64 µg/mL (≈ 226 µM) | MIC (Staphylococcus aureus [26]): 64 µg/mL (≈ 226 µM) | MIC (Aspergillus flavus [28]): 32 µg/mL (≈ 113 µM)
